Results taken from PubChem BioAssay (NCI).
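Assay format: 96-well plates, 48-hour exposure. TGI: concentration producing complete growth inhibition.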

Columns and labels:
Test in all cases: NCI anticancer screen, dose series, 48 h
786-0 renal = tested on: 786-0 renal
A498 renal = tested on: A498 renal
A549 NSCLC = tested on: A549 NSCLC
ACHN renal = tested on: ACHN renal
COLO 205 colon = tested on: COLO 205 colon
EKVX NSCLC = tested on: EKVX NSCLC
HOP-62 NSCLC = tested on: HOP-62 NSCLC
HT29 colon = tested on: HT29 colon
KM12 colon = tested on: KM12 colon
M14 melanoma = tested on: M14 melanoma
MOLT-4 leukemia = tested on: MOLT-4 leukemia
OVCAR-3 ovarian = tested on: OVCAR-3 ovarian
RXF 393 renal = tested on: RXF 393 renal
SF-268 CNS = tested on: SF-268 CNS
SK-MEL-5 melanoma = tested on: SK-MEL-5 melanoma
SK-OV-3 ovarian = tested on: SK-OV-3 ovarian
SR leukemia = tested on: SR leukemia
K-562 leukemia = tested on: K-562 leukemia
UACC-62 melanoma = tested on: UACC-62 melanoma

SMILES	TGI (786-0 renal) [µM]	TGI (A498 renal) [µM]	TGI (A549 NSCLC) [µM]	TGI (ACHN renal) [µM]	TGI (COLO 205 colon) [µM]	TGI (EKVX NSCLC) [µM]	TGI (HOP-62 NSCLC) [µM]	TGI (HT29 colon) [µM]	TGI (KM12 colon) [µM]	TGI (M14 melanoma) [µM]	TGI (MOLT-4 leukemia) [µM]	TGI (OVCAR-3 ovarian) [µM]	TGI (RXF 393 renal) [µM]	TGI (SF-268 CNS) [µM]	TGI (SK-MEL-5 melanoma) [µM]	TGI (SK-OV-3 ovarian) [µM]	TGI (SR leukemia) [µM]	TGI (K-562 leukemia) [µM]	TGI (UACC-62 melanoma) [µM]
CCC(=O)COc1ccc(NC(NC(=O)C(C(F)(F)F)C(F)(F)F)(C(F)(F)F)C(F)(F)F)cc1	61.7	> 100	> 100	> 100	43.7	> 100	> 100	70.3	> 100	> 100	44.8	> 100	48.7	78.1	> 100	> 100	37.1	–	–
CC(C)(C)N1NC1C1NN1C(C)(C)C (stereo unspecified)	> 100	> 100	> 100	> 100	> 100	> 100	> 100	> 100	> 100	> 100	> 100	> 100	> 100	> 100	> 100	> 100	> 100	> 100	> 100
O=C1CCCC2=C1CC1=C(CCCC1=O)N2c1cccc2ccccc12	> 100	> 100	> 100	> 100	–	> 100	–	> 100	> 100	> 100	> 100	> 100	54.4	> 100	> 100	> 100	> 100	> 100	> 100
N#CC12C3C4CC5C6C4C1C6C(O)(C53)N2Cc1ccccc1 (stereo unspecified)	> 100	> 100	> 100	> 100	> 100	> 100	> 100	> 100	> 100	> 100	> 100	> 100	> 100	> 100	> 100	> 100	> 100	> 100	> 100
CC(C)CC1c2[nH]c3ccccc3c2C[C@H]2C(=O)NC(CCC(=O)OC(C)(C)C)C(=O)N12 (stereo partly specified)	> 100	> 100	> 100	> 100	39.6	> 100	56.2	43.1	> 100	> 100	72.8	41.7	72	> 100	61.7	> 100	65.1	> 100	> 100
CC(C)/C=N\n1c(N)c(C#N)c(C#N)c1C(C)C	> 100	69.5	> 100	91.1	45.7	72.8	> 100	> 100	> 100	> 100	63.4	62.1	> 100	> 100	34.1	> 100	> 100	> 100	34.7
COC(=N)C12C(N)=NC(OC)(OC)C1(C#N)C21C(=O)N(c2ccccc2)N=C1C (stereo unspecified)	> 100	> 100	> 100	> 100	> 100	> 100	> 100	> 100	> 100	> 100	> 100	> 100	> 100	> 100	–	> 100	> 100	> 100	> 100
C=C1C(=O)C23CC1C[C@H](OC(C)=O)C2C1(C)C(OC(C)=O)C[C@H](O)C(C)(C)[C@H]1C(O)[C@@H]3OC(C)=O (stereo partly specified)	20.7	28.4	48.8	24.3	14.5	29.1	33.8	30	> 54.5	18.7	8.64	19.1	19.9	28.5	27.9	56.5	27.4	10.9	26.5
CCCCc1c2c(nc3c1CCC/C3=C\c1ccccc1)C(=O)C(CN(C)C)CC2 (stereo unspecified)	23.9	33.2	37.3	29.5	36.6	36.1	34.1	28.9	33.6	33.7	11.5	39.9	30.9	35.6	30.9	40.6	9.17	21.5	48.4
CCOC(=O)c1nc2ccc(C(F)(F)F)cc2nc1Oc1ccc(F)cc1	> 100	> 100	–	> 100	> 100	> 100	> 100	> 100	> 100	> 100	> 100	–	> 100	> 100	> 100	> 100	> 100	> 100	> 100
CC1(C)OCC(C2OC(N3O[C@H](CI)C[C@@H]3c3ccccc3)C3OC(C)(C)OC23)O1 (stereo partly specified)	> 100	> 100	> 100	> 100	> 100	> 100	> 100	> 100	> 100	> 100	–	> 100	> 100	> 100	> 100	> 100	> 100	> 100	> 100
CNC(=O)c1n[nH][nH]c1=O	> 100	> 100	> 100	> 100	> 100	> 100	> 100	> 100	> 100	> 100	> 100	–	> 100	> 100	> 100	> 100	> 100	> 100	> 100
COc1ccc2c3ccc4c(c3n(C)c2c1)C(=O)c1ccccc1C4=O	> 100	> 100	> 100	> 100	> 100	> 100	> 100	> 100	–	> 100	> 100	–	> 100	> 100	> 100	> 100	> 100	> 100	> 100
